# “And” between values parts separate entries of the source, which are not always exact repeats. Identical values can stand only once.
# Key:
# SPAK pSer373 = assay: Immunoblot of SPAK/OSR1 p-Ser373/Ser325 in HEK-293 cells; type: cell-based, human
# Method: (§1) Band intensities were quantitated with ImageJ software. ***p < 0.001; **p < 0.01; *p < 0.05; ns, nonsignificant [by one-way ANOVA with post hoc testing (n = 6, error bars represent the mean ± SEM)].
# (§2) Thirty-six hours post transfection, cells were stimulated with either control isotonic or hypotonic medium for a period of 30 min. […] Protein concentrations were determined using the Bradford method. Cells were treated with the indicated concentrations of the SPAK/OSR1 inhibitors.
# NKCC1 pThr203/207/212 = assay: Immunoblot of NKCC1 p-Thr203/Thr207/Thr212 in HEK-293 cells; type: cell-based, human
# Method: as §1, §2
# KCC3 pThr991 = assay: Immunoblot of KCC site 1 phosphorylation (KCC3 Thr991) in HEK-293 cells transfected with FLAG-KCC3; type: cell-based, human
# KCC3 pThr1048 = assay: Immunoblot of KCC site 2 phosphorylation (KCC3 Thr1048) in HEK-293 cells transfected with FLAG-KCC3; type: cell-based, human
# GST–[T233E]SPAK kinase = target: T1, GST–[T233E]SPAK kinase (Homo sapiens, UniProt Q9UEW8, T231E); assay: SPAK kinase assay with CATCHtide and IC50 determination; type: biochemical
# T1 construct: made in house; host or cells: E. coli
# Description: II. Experimental procedures
# 1. Reagents and General methods
# Tissue culture reagents were from Life Technologies. P81 phosphocellulose paper was from Whatman […]
# and [γ-32P]-ATP was from Perkin Elmer. […] Protein G […]
# sepharose was from Amersham. DNA constructs used for transfection were purified from Escherichia coli DH5α using Qiagen or Invitrogen plasmid Maxi kits according to the manufacturer's protocol. All DNA constructs were verified by DNA sequencing.
# 2. Plasmids, protein expression and purification
# DNA clones were from the Division of Signal Transduction Therapy (University of Dundee). The SPAK proteins were expressed in E. Coli and purified as described previously 1.
# 3. SPAK kinase assays and IC50 determination
# SPAK kinase assays employed CATCHtide (cation chloride co-transporter peptide substrate). Peptide kinase assays, performed in triplicate, were set up in a total volume of 50 μl containing 0.5 μg GST– […]
# cpm/pmol) and the indicated concentrations of inhibitor dissolved in DMSO. After incubation for 30 min at 30°C, reactions were terminated by spotting 40 μl of the reaction mix onto P81 phosphocellulose paper and immersion in 50 mM phosphoric acid. The papers were washed extensively and incorporation of [γ-32P]ATP into CATCHtide was quantified by Cerenkov counting.
# IC50 values were calculated with GraphPad Prism using non-linear regression analysis.
# 4. Fluorescence polarization […]
# concentrations between 0.00001 to 1 mM. Data points are the means of three determinations, with error […]
# A Supplemental Fig. 7 Effects of increasing concentrations of ZT-1a on SPAK activity in the absence […]
# the absence or presence of five-fold molar excess of wild-type MO25α. b Kinetic data determined for B ZT-1a in the absence or presence of five-fold molar excess of wild-type MO25α. Data are means of […]
# presence of wild-type MO25α.
# [1] = Hypotonic low Cl, compound concentration 1 (unit not given)
# [2] = Hypotonic low Cl, compound concentration 3 (unit not given)
# [3] = Hypotonic low Cl, compound concentration 10 (unit not given)
# [4] = Isotonic control, compound concentration 1 (unit not given)
# [5] = Isotonic control, compound concentration 3 (unit not given)
# [6] = Isotonic control, compound concentration 10 (unit not given)
compound,measurement,setting,value
Cc1cc(C(C#N)c2ccc(Cl)cc2)c(Cl)cc1NC(=O)c1ccccc1N (centres unmarked) [ZT-1d],pSer373 / SPAK,SPAK pSer373; [1],0.19 and 0.21 and 0.18 and 0.207
same,pSer373 / SPAK,SPAK pSer373; [2],0.131 and 0.12 and 0.103 and 0.116
same,pSer373 / SPAK,SPAK pSer373; [3],0.04 and 0.025 and 0.035 and 0.031
same,pSer373 / SPAK,SPAK pSer373; [4],0.11 and 0.119 and 0.109 and 0.101
same,pSer373 / SPAK,SPAK pSer373; [5],0.072 and 0.065 and 0.051 and 0.063
same,pSer373 / SPAK,SPAK pSer373; [6],0.022 and 0.031 and 0.038 and 0.028
same,pThrNKCC1 / NKCC1,NKCC1 pThr203/207/212; [1],0.46 and 0.429 and 0.413 and 0.49
same,pThrNKCC1 / NKCC1,NKCC1 pThr203/207/212; [2],0.27 and 0.21 and 0.203 and 0.251
same,pThrNKCC1 / NKCC1,NKCC1 pThr203/207/212; [3],0.11 and 0.077 and 0.102 and 0.085
same,pThrNKCC1 / NKCC1,NKCC1 pThr203/207/212; [4],0.313 and 0.307 and 0.286 and 0.297
same,pThrNKCC1 / NKCC1,NKCC1 pThr203/207/212; [5],0.143 and 0.119 and 0.09 and 0.126
same,pThrNKCC1 / NKCC1,NKCC1 pThr203/207/212; [6],0.055 and 0.031 and 0.042 and 0.047
same,Site-1 phospho / KCC,KCC3 pThr991; [1],0.516 and 0.487 and 0.55 and 0.508
same,Site-1 phospho / KCC,KCC3 pThr991; [2],0.509 and 0.49 and 0.511 and 0.521
same,Site-1 phospho / KCC,KCC3 pThr991; [3],0.276 and 0.218 and 0.234 and 0.258
same,Site-1 phospho / KCC,KCC3 pThr991; [4],0.49 and 0.471 and 0.48 and 0.466
same,Site-1 phospho / KCC,KCC3 pThr991; [5],0.355 and 0.36 and 0.38 and 0.371
same,Site-1 phospho / KCC,KCC3 pThr991; [6],0.218 and 0.232 and 0.255 and 0.241
same,Site-2 phospho / KCC,KCC3 pThr1048; [1],0.37 and 0.41 and 0.35 and 0.482
same,Site-2 phospho / KCC,KCC3 pThr1048; [2],0.29 and 0.25 and 0.23 and 0.287
same,Site-2 phospho / KCC,KCC3 pThr1048; [3],0.105 and 0.124 and 0.08 and 0.117
same,Site-2 phospho / KCC,KCC3 pThr1048; [4],0.412 and 0.477 and 0.43 and 0.521
same,Site-2 phospho / KCC,KCC3 pThr1048; [5],0.209 and 0.165 and 0.191 and 0.177
same,Site-2 phospho / KCC,KCC3 pThr1048; [6],0.108 and 0.08 and 0.114 and 0.094
"CN[C@@H]1C[C@H]2O[C@@](C)([C@@H]1OC)n1c3ccccc3c3c4c(c5c6ccccc6n2c5c31)C(=O)NC4 [staurosporine, reference compound]",SPAK kinase activity signal (Fig S3 source data),"GST–[T233E]SPAK kinase; ATP 0.01 mM, inhibitor 1e-5 uM",880 and 902
same,SPAK kinase activity signal (Fig S3 source data),"GST–[T233E]SPAK kinase; ATP 0.01 mM, inhibitor 0.0001 uM",874
same,SPAK kinase activity signal (Fig S3 source data),"GST–[T233E]SPAK kinase; ATP 0.01 mM, inhibitor 0.001 uM",875
same,SPAK kinase activity signal (Fig S3 source data),"GST–[T233E]SPAK kinase; ATP 0.01 mM, inhibitor 0.03 uM",535 and 689 and 604
same,SPAK kinase activity signal (Fig S3 source data),"GST–[T233E]SPAK kinase; ATP 0.01 mM, inhibitor 0.1 uM",405 and 495 and 442
same,SPAK kinase activity signal (Fig S3 source data),"GST–[T233E]SPAK kinase; ATP 0.01 mM, inhibitor 0.3 uM",385 and 459 and 417
same,SPAK kinase activity signal (Fig S3 source data),"GST–[T233E]SPAK kinase; ATP 0.01 mM, inhibitor 1 uM",408 and 363
same,SPAK kinase activity signal (Fig S3 source data),"GST–[T233E]SPAK kinase; ATP 0.01 mM, inhibitor 10 uM",206 and 221
same,SPAK kinase activity signal (Fig S3 source data),"GST–[T233E]SPAK kinase; ATP 0.01 mM, inhibitor 100 uM",109 and 126
same,SPAK kinase activity signal (Fig S3 source data),"GST–[T233E]SPAK kinase; ATP 0.01 mM, inhibitor 1000 uM",95 and 64 and 75
same,SPAK kinase activity signal (Fig S3 source data),"GST–[T233E]SPAK kinase; ATP 0.1 mM, inhibitor 1e-5 uM",880 and 897
same,SPAK kinase activity signal (Fig S3 source data),"GST–[T233E]SPAK kinase; ATP 0.1 mM, inhibitor 0.0001 uM",874
same,SPAK kinase activity signal (Fig S3 source data),"GST–[T233E]SPAK kinase; ATP 0.1 mM, inhibitor 0.001 uM",875 and 869
same,SPAK kinase activity signal (Fig S3 source data),"GST–[T233E]SPAK kinase; ATP 0.1 mM, inhibitor 0.03 uM",715
same,SPAK kinase activity signal (Fig S3 source data),"GST–[T233E]SPAK kinase; ATP 0.1 mM, inhibitor 0.1 uM",705 and 625 and 675
same,SPAK kinase activity signal (Fig S3 source data),"GST–[T233E]SPAK kinase; ATP 0.1 mM, inhibitor 0.3 uM",565 and 509 and 529
same,SPAK kinase activity signal (Fig S3 source data),"GST–[T233E]SPAK kinase; ATP 0.1 mM, inhibitor 1 uM",453 and 458 and 431
same,SPAK kinase activity signal (Fig S3 source data),"GST–[T233E]SPAK kinase; ATP 0.1 mM, inhibitor 3 uM",389 and 363
same,SPAK kinase activity signal (Fig S3 source data),"GST–[T233E]SPAK kinase; ATP 0.1 mM, inhibitor 100 uM",112 and 127
same,SPAK kinase activity signal (Fig S3 source data),"GST–[T233E]SPAK kinase; ATP 0.1 mM, inhibitor 1000 uM",114 and 95
same,SPAK kinase activity signal (Fig S3 source data),"GST–[T233E]SPAK kinase; ATP 1 mM, inhibitor 1e-5 uM",880
same,SPAK kinase activity signal (Fig S3 source data),"GST–[T233E]SPAK kinase; ATP 1 mM, inhibitor 0.0001 uM",874
same,SPAK kinase activity signal (Fig S3 source data),"GST–[T233E]SPAK kinase; ATP 1 mM, inhibitor 0.001 uM",875
same,SPAK kinase activity signal (Fig S3 source data),"GST–[T233E]SPAK kinase; ATP 1 mM, inhibitor 0.3 uM",714 and 703
same,SPAK kinase activity signal (Fig S3 source data),"GST–[T233E]SPAK kinase; ATP 1 mM, inhibitor 1 uM",504 and 558 and 522
same,SPAK kinase activity signal (Fig S3 source data),"GST–[T233E]SPAK kinase; ATP 1 mM, inhibitor 3 uM",489 and 412 and 459
same,SPAK kinase activity signal (Fig S3 source data),"GST–[T233E]SPAK kinase; ATP 1 mM, inhibitor 10 uM",406 and 421 and 391
same,SPAK kinase activity signal (Fig S3 source data),"GST–[T233E]SPAK kinase; ATP 1 mM, inhibitor 100 uM",356
same,SPAK kinase activity signal (Fig S3 source data),"GST–[T233E]SPAK kinase; ATP 1 mM, inhibitor 1000 uM",214 and 183

# — article PMC6946680, “Modulation of brain cation-Cl^− cotransport via the SPAK kinase inhibitor ZT-1a” (Nature Communications, 2020)
